Results published in paper PMC10947176, “The Antimicrobial Properties of Pd^II− and Ru^II−pyta Complexes” (Chembiochem, 2023).
Like-named read-outs stand apart in the source and are kept apart here.

Assays:
Assay in all cases: MIC against extended fungal panel
[1] = test system: C. albicans ATCC 90028; assay type: cell-based, Candida albicans; conditions: for MIC: Candida albicans, ATCC90028
Experimental: (§1) The extended panel contained four Candida and two Cryptococcus strains (Table 1).
(§2) Antifungal data collection: Fungi strains were cultured for 3 days on yeast extract‐peptone dextrose (YPD) agar at 30 °C. A yeast suspension of 1×10^6 to 5×10^6 CFU mL^−1 (as determined by OD530) was prepared from five colonies. The suspension was diluted in supplemented YNB and added to each well of the compound‐containing plates giving a final cell density of fungi suspension of 2.5×10^3 CFU mL^−1 and 2 % DMSO. All plates were covered and incubated at 35 °C for 36 h without shaking.
(§3) Two biological replicates x2 technical replicates were conducted on separate days (final n=4).
(§4) Growth inhibition of C. albicans, C. tropicalis and C. glabrata was determined by measuring absorbance at 630 nm (OD630), while the growth inhibition of Cryptococcus spp. and C. auris was determined by measuring the difference in absorbance between 600 and 570 nm (OD600‐570), after the addition of resazurin (0.01 % final concentration) and incubation at 35 °C for 2 h. The absorbance was measured using a Biotek Multiflo Synergy HTX plate reader.
(§5) The percentage of growth inhibition was calculated for each well, using the negative control (media only) and positive control (fungi without inhibitors) on the same plate. […] In addition, the maximal percentage of growth inhibition is reported as D Max, indicating any compounds with marginal activity.

[2] = test system: C. neoformans ATCC 208821; assay type: cell-based, Cryptococcus neoformans
Experimental: as §1, §2, §3, §4, §5

[3] = test system: Candida tropicalis ATCC 750; assay type: cell-based
Experimental: as §1, §2, §3, §4, §5

[4] = test system: C. glabrata ATCC 90030; assay type: cell-based, Candida glabrata
Experimental: as §1, §2, §3, §4, §5

[5] = test system: C. deuterogattii ATCC 32609; assay type: cell-based, Cryptococcus deuterogattii
Experimental: as §1, §2, §3, §4, §5

[6] = test system: C. auris CBS10913; assay type: cell-based, Candida auris
Experimental: as §1, §2, §3, §4, §5

OC(Cn1cncn1)(Cn1cncn1)c1ccc(F)cc1F [fluconazole]
MIC ([1]; Table S3, Table 1 values in µM, read-out: MIC, Candida albicans ATCC 90028): 0.816 to 1.63 µM
MIC ([1]; range of MICs, n=4, read-out: MIC, C. albicans ATCC 90028): 0.25 to 0.5 µg/mL
MIC, Candida albicans ATCC 90028 ([1]; second Table S4, free ligands): 0.816 to 1.63 µM
MIC ([2]; Cryptococcus neoformans, ATCC208821, Table S3, Table 1 values in µM, read-out: MIC, Cryptococcus neoformans ATCC 208821): 26.1 µM
MIC ([2]; Cryptococcus neoformans, ATCC208821, range of MICs, n=4, read-out: MIC, C. neoformans ATCC 208821): 8 µg/mL
MIC ([2]; second Table S4, free ligands, read-out: MIC, Cryptococcus neoformans ATCC 208821): 26.1 µM
MIC ([3]; Candida tropicalis, ATCC750, Table S3, Table 1 values in µM): 13.1 µM
MIC ([3]; Candida tropicalis, ATCC750, range of MICs, n=4): 4 µg/mL
MIC ([3]; second Table S4, free ligands): 13.1 µM
MIC ([4]; Nakaseomyces glabratus, ATCC90030, Table S3, Table 1 values in µM, read-out: MIC, Candida glabrata ATCC 90030): > 104 µM
MIC ([4]; Nakaseomyces glabratus, ATCC90030, range of MICs, n=4, read-out: MIC, C. glabrata ATCC 90030): > 32 µg/mL
MIC ([4]; second Table S4, free ligands, read-out: MIC, Candida glabrata ATCC 90030): > 104 µM
MIC ([5]; Cryptococcus deuterogattii, ATCC32609, Table S3, Table 1 values in µM, read-out: MIC, Cryptococcus deuterogattii ATCC 32609): > 104 µM
MIC ([5]; Cryptococcus deuterogattii, ATCC32609, range of MICs, n=4, read-out: MIC, C. deuterogattii ATCC 32609): > 32 µg/mL
MIC ([5]; second Table S4, free ligands, read-out: MIC, Cryptococcus deuterogattii ATCC 32609): > 104 µM
MIC ([6]; Candidozyma auris, CBS10913, Table S3, Table 1 values in µM, read-out: MIC, Candida auris CBS10913): > 104 µM
MIC ([6]; Candidozyma auris, CBS10913, range of MICs, n=4, read-out: MIC, C. auris CBS10913): ≥ 32 µg/mL
MIC ([6]; second Table S4, free ligands, read-out: MIC, Candida auris CBS10913): > 104 µM
